Values quoted from earlier work in patent publication US20180036237A1, “OIL/SURFACTANT MIXTURES FOR SELF-EMULSIFICATION” (priority 2015, published 2018).

Settings: single surfactant

In the case of polyoxyethylene cetostearyl ether, the HLB is listed as 13.5.
